In US12559526B2, “Complement component 1s (C1s) deficient cells for production of vaccines and biopharmaceutical proteins” (The Regents of the University of California, priority 2018, dated 2026):

Target: T1, C1s (Cricetulus griseus, UniProt G3GUR0)
T1 construct: endogenous in cells; host or cells: CHO cells; FreeStyle CHO-S (Thermo Fisher) named in Materials and Methods; 10x concentrated culture supernatant
Experiment: Proteolysis of purified MN gp120 by 10× concentrated CHO supernatant, western blot
Type: biochemical, Chinese Hamster
Settings: purified MN gp120 (clade B) combined with 10× concentrated CHO supernatant; reduced with DTT; goat polyclonal anti-gp120 western blot
Procedure: FIGS. 8A and 8B. […] FIG. 8A. Purified MN gp120, a clade B protein, was combined with 10× concentrated CHO supernatant. Samples were reduced with DTT and probed on western blot using a goat polyclonal antibody against gp120. FIG. 8B provides details of samples loaded in lanes 1-5 in FIG. 8A. The serine protease inhibitor, 4-AMB was used.
Enrichment of protease from CHO cell culture supernatant was carried out using a series of chromatography columns to enrich for protein containing proteolytic activity. Individual chromatography fractions (CHO cell culture supernatant was fractionated based on size using size exclusion chromatography, followed by further purification on strong anion-exchange column) were assayed for the presence of protease activity against purified gp120.

T1 sequence (G3GUR0 entry or part of it): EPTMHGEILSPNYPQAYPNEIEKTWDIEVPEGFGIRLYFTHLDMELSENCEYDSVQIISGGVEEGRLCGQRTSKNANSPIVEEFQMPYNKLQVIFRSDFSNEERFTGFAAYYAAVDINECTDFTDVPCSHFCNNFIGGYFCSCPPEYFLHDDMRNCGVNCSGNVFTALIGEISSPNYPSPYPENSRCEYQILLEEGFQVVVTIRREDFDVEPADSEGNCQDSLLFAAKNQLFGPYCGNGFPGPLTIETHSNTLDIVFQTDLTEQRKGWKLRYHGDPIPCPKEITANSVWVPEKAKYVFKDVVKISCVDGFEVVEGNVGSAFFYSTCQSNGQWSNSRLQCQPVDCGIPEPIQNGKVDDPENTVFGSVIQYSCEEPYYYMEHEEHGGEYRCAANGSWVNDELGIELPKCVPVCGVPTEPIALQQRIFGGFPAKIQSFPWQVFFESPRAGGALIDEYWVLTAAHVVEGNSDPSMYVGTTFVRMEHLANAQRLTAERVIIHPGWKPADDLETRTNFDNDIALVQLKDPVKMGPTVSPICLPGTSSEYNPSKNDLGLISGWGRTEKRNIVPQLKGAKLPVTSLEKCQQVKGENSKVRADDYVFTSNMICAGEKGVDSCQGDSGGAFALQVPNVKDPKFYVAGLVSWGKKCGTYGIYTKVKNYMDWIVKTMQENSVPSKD

## O=C(O)CN(CCOCCOCCN(CC(=O)O)CC(=O)O)CC(=O)O [EGTA]
  proteolysis of gp120 in CHO cell supernatant: Inhibition of proteolysis
